Measured values as given in US20240122930A1, “INTEGRIN INHIBITORS AND USES THEREOF IN COMBINATION WITH OTHER AGENTS” (Pliant Therapeutics, Inc., priority 2022, published 2024).
“Also recorded” adds a separate entry of the source.

Tests used:
integrin beta-6 (ITGB6) = experiment: Phase 2a clinical trial: plasma integrin beta-6; format: in vivo, human; details: IPF participants; greatest effect at 320 mg
Excerpt: (§1) Med. 2022 June; 10(6):593-602, which is incorporated herein by reference in its entirety. […] Res. 2019 Jul. 12; 20(1):148, which is incorporated herein by reference in its entirety. ** denotes that p<0.01 vs placebo. LS refers to Least Squares. SE refers to Standard Error. Integrin beta-6 data was reported in relative quantitation log2 scale.

COL1A1 expression = experiment: Precision cut lung slices from human IPF explants, COL1A1 expression; format: cell-based
Excerpt: Explanted lung tissue was obtained from human IPF subjects and inflated with agarose as described in the preceding examples. Biopsy cores were obtained from the agarose-inflated lung tissue. The biopsy cores were subjected to precision slicing to obtain several hundred μm thick. Individual slices were distributed in a multiwell culture plate and cultured for […] under control (DMSO) and test compound conditions. The viability of the slices over the course of culturing was confirmed by WST-1 assay of mitochondrial activity.
PCLS from 5-7 idiopathic pulmonary fibrosis (IPF) lung tissue samples were cultured for seven days with one of: DMSO; Compound 5 at 200 nM; nintedanib at 75 nM; pirfenidone at 50 μM; a combination of Compound 5 at 200 nM and nintedanib at 75 nM; a combination of Compound 5 at 200 nM and pirfenidone at 50 μM; or an ALK5 inhibitor at 1 μM. […] FIG. 6D is a bar graph showing relative expression of COL1A1 in precision cut lung slices (PCLS) from idiopathic pulmonary fibrosis (IPF) lung tissue upon exposure to Compound 5, clinical standard of care compounds nintedanib (Nin) and pirfenidone (Pirf), and an ALK5 inhibitor, all versus DMSO control.
PCLS from a single IPF lung tissue sample were cultured for seven days with Compound 5 at concentrations of 200 pM, 2 nM, 60 nM, 200 nM, and 1 μM, along with 0.1% DMSO control and an ALK5 inhibitor at 1 μM. […] COL1A1 expression is also graphed for the PCLS in the presence of 0.1% DMSO control, and an ALK5 inhibitor at 1 μM.

[1] = system: PRO-C3, Type III collagen synthesis neoepitope; experiment: Phase 2a clinical trial: serum biomarker PRO-C3; format: in vivo, human; details: IPF participants, 40 to 320 mg, 4 to 24 weeks
Protocol: Blank columns represent 40 mg Compound 5 dosage. Grid pattern filled columns represent 80 mg Compound 5 dosage. Diagonal line filled columns represent 160 mg Compound 5 dosage. Dot filled columns represent all participants dosed with Compound 5. […] In FIG. 21, LS refers to Least Squares and SEM refers to Standard Error of Mean.
PRO-C3 and PRO-C6, serum biomarkers of type III and VI collagen synthesis, respectively, were previously shown to be elevated in patients with IPF and associated with progressive disease, according to Respir Res. 2019 Jul. 12; 20(1):148. Doi: 10.1186/s12931-019-1118-7, which is herein incorporated by reference in its entirety. Change from baseline was analyzed using a mixed model for repeated measures with terms for treatment group, visit, baseline value, and treatment-by-visit interaction. LS refers to Least Squares; SE refers to Standard Error.
as §1

bleomycin-treated mice = experiment: Murine bleomycin model (pSMAD3, collagen deposition); format: in vivo, mice (C57BL/6)
Protocol: Mice (C57BL/6) were divided into healthy (n=15), vehicle-treated (n=15), and test article-treated (n=15 per dose) groups. Mice in the vehicle and test article-treated groups were administered 3 U/kg of bleomycin (Teva Pharmaceuticals; North Wales, PA) via oropharyngeal aspiration while under anesthesia on day 0. Healthy animals were administered water in a similar fashion. Starting on day 7, mice in the control group were administered PBS vehicle, 130 μL, by oral gavage, BID for 14 days. Also starting on day 7, mice in the test group were administered Compound 5 in PBS by oral gavage, BID for 14 days, at relative dosages of 1×, 2.5× and 5×. […] From day 14 through day 21, 9 of the 15 mice were administered ^2H2O for labeling. All mice were sacrificed on day 21 and tissues were collected. Samples were prepared for analysis either directly from lung tissue, or by bronchoalveolar lavage, which washes out the bronchiolar and alveolar space with saline to produce a bronchoalveolar lavage fluid (BALF) in which 80-90% of cells are alveolar macrophages.
FIGS. 4F, 4G, and 4H show high resolution second harmonic generation images of fibrillar collagen (collagen type I and III) taken from formalin-fixed paraffin embedded lung tissue sections from a healthy mouse lung (4F), a vehicle-treated mouse lung (4G) and a test-article treated mouse lung (4H; 500 mg/kg BID). Color scale is indicative of collagen fiber density (red=most dense; blue=least dense).
FIG. 41 is a graph showing the percent total collagen area in the second harmonic generation mouse lung images. Large structural areas of collagen found similarly in healthy and fibrotic tissues (dense collagen fibers surrounding airways were excluded from this analysis to focus on interstitial fibrotic collagen). […] The 1×, 2.5×, and 5× dosages were at the same absolute values in mg/kg as in Example B7.
The data for FIGS. 4J and 4K, was obtained 14 days after bleomycin challenge in mice were treated with Compound 5 at 2.5× dose (PO, BID for 1.5 days).

[2] = bleomycin mice, 1×, […], 5×, vs control mice

COCCN(CCCCc1ccc2c(n1)NCCC2)CC[C@H](Nc1ncnc2ccccc12)C(=O)O [Compound 5, (S)-4-((2-methoxyethyl) (4-(5,6,7,8-tetrahydro-1,8-naphthyridin-2-yl)butyl)amino)-2-(quinazolin-4-ylamino) butanoic acid]
Circulating (plasma) integrin beta-6 levels relative to placebo (integrin beta-6 (ITGB6)): reduced
reduction of COL1A1 expression (COL1A1 expression; human IPF PCLS (5-7 tissues), 7 days, Compound 5 at 200 nM alone): 43%
lung Col1a1 expression, normalized to DMSO control slices (COL1A1 expression; human IPF PCLS, 3 days, 3G9 ≥400 ng/mL, Compound 5 179 nM, ALK5 inhibitor 1 μM): substantial, statistically significant (p<0.01 vs vehicle) decrease
COL1A1 expression, dose response (COL1A1 expression; human IPF PCLS, 7 days, 200 pM to 1 μM): dose dependent reduction
reduction of COL1A1 expression (COL1A1 expression; human IPF PCLS, 7 days, Compound 5 at 200 nM in combination with nintedanib at 75 nM): 55%
reduction of COL1A1 expression (COL1A1 expression; human IPF PCLS, 7 days, Compound 5 at 200 nM in combination with pirfenidone at 50 μM): 49%
Serum PRO-C3, change from baseline relative to placebo [1]: decreased; also recorded: reduced; also recorded: dose-dependent reduction
relationship between pSMAD3 levels in lung and BALF cells vs. plasma drug exposure (bleomycin-treated mice; 14 days after bleomycin challenge, […] dose PO BID for 1.5 days): close inverse relationship
accumulated new collagen (percentage of lung collagen containing 2H-labeled hydroxyproline) (bleomycin-treated mice; bleomycin mice, 1× and 5×, vs control mice): dose-dependent reduction
percent total collagen area in second harmonic generation images (bleomycin-treated mice; [2]): substantial, statistically significant dose-dependent reduction
total pulmonary collagen (μg of hydroxyproline) (bleomycin-treated mice; [2]): reduction in total pulmonary collagen
SMAD3 phosphorylation in lung tissue (bleomycin-treated mice; bleomycin mice, oral gavage BID 14 days, 1×, […], 5× dosages, vs vehicle): substantial, statistically significant dose-dependent reductions
